# Laboratory results from patent US11795460B2, “Compositions and methods for TTR gene editing and treating ATTR amyloidosis” (Intellia Therapeutics, Inc., priority 2017, dated 2023).
# Key:
# [1] = system: TTR; experiment: TTR editing in HepG2 cells transfected with Spy Cas9 mRNA and dgRNAs (Table 6); type: cell-based, human; details: HepG2 cells co-transfected with Spy Cas9 mRNA (SEQ ID NO:2) and dgRNAs
# Summary of the method: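 Percent editing is the share of sequencing reads at the TTR target locus that carry insertions, deletions or substitutions, measured by Illumina amplicon sequencing aligned to hg38. Samples came from HepG2 cells lipofected first with 100 ng Cas9 mRNA and then with dual-guide RNA (25 nM crRNA/tracer), collected 24–72 h later.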
# [2] = system: TTR; experiment: TTR editing in primary human hepatocytes transfected with Spy Cas9 protein (RNP) loaded with dgRNAs (Table 8); type: cell-based; details: dgRNA transfected with Spy Cas9 protein (RNP)
# Summary of the method: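 Primary human hepatocytes were lipofected (RNAiMAX) with RNP of Spy Cas9 (10 nM) plus pre-annealed crRNA (10 nM) and trRNA (10 nM) and harvested 24, 48 or 72 h later. Target-site amplicons were sequenced on Illumina MiSeq and aligned to hg38; percent editing = reads with indels or substitutions over total reads.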
# [3] = system: TTR; experiment: TTR editing in HEK293_Cas9 cells transfected with dgRNAs (Table 4); type: cell-based, human; details: HEK293_Cas9 cells (constitutively express Spy Cas9) transfected with dgRNAs
# Summary of the method: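 Percent editing, taken from amplicon NGS as the fraction of all reads carrying insertions, deletions or substitutions, was measured 24, 48 or 72 h after delivery. Delivery used RNAiMAX lipoplexes of 25 nM each crRNA and trRNA into HEK293 cells stably expressing Spy Cas9.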
Sequence,Avg % Deletion [1] [%],Avg % Edit [1] [%],Avg % Insert [1] [%],Avg % Deletion [2] [%],Avg % Edit [2] [%],Avg % Insert [2] [%],Avg % Deletion [3] [%],Avg % Edit [3] [%],Avg % Insert [3] [%]
"ACGUGUCUUCUCUACACCCA (tested as dual guide RNA, chemistry not given here) [CR005302]",2.29,33.21,30.93,0.97,48.29,47.32,,,
"GGCUGUCGUCACCAAUCCCA (tested as dual guide RNA, chemistry not given here) [CR003391]",0.50,48.78,48.28,0.26,34.72,34.46,44.19,44.81,0.61
"CCGUGGUGGAAUAGGAGUAG (tested as dual guide RNA, chemistry not given here) [CR003386]",0.56,2.71,2.15,0.25,3.22,2.97,30.18,33.12,2.94
"CUGGUAUUUGUGUCUGAGGC (tested as dual guide RNA, chemistry not given here) [CR003341]",5.66,15.60,9.94,5.02,19.66,14.64,13.31,20.04,6.73
"GACGACAGCCGUGGUGGAAU (tested as dual guide RNA, chemistry not given here) [CR003388]",1.56,9.33,7.76,1.05,5.43,4.38,17.82,19.23,1.41
"GCAUGGGCUCACAACUGAGG (tested as dual guide RNA, chemistry not given here) [CR003362]",0.94,17.44,16.50,0.56,11.65,11.10,8.41,9.90,1.48
"ACUGAGGAGGAAUUUGUAGA (tested as dual guide RNA, chemistry not given here) [CR003363]",14.07,42.65,28.58,6.18,27.65,21.47,16.26,31.03,14.77
"CAGAGGACACUUGGAUUCAC (tested as dual guide RNA, chemistry not given here) [CR003343]",5.36,45.41,40.05,1.63,43.25,41.61,19.53,24.36,4.82
"GCGGCAAUGGUGUAGCGGCG (tested as dual guide RNA, chemistry not given here) [CR003377]",1.02,16.30,15.29,0.31,12.77,12.45,21.99,24.70,2.71
"GCUGCAUGGGCUCACAACUG (tested as dual guide RNA, chemistry not given here) [CR003361]",2.58,14.05,11.47,0.56,13.08,12.52,25.78,34.45,8.66
"ACCUCUGCAUGCUCAUGGAA (tested as dual guide RNA, chemistry not given here) [CR003371]",1.84,15.91,14.07,1.57,18.80,17.23,21.76,25.60,3.84
"UGAAUCCAAGUGUCCUCUGA (tested as dual guide RNA, chemistry not given here) [CR005303]",1.08,21.63,20.55,0.39,36.45,36.06,,,
"AAGUGCCUUCCAGUAAGAUU (tested as dual guide RNA, chemistry not given here) [CR003368]",3.22,51.55,48.34,1.00,34.83,33.83,36.61,40.35,3.73
"GUCACAGAAACACUCACCGU (tested as dual guide RNA, chemistry not given here) [CR005301]",3.65,37.04,33.39,1.84,31.37,29.53,,,
